Here are results for twelve compounds from PubChem BioAssay (NCI).

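Cultured in 96-well plates, cells were exposed to test compound for 48 hours across five concentrations. The concentration for 50% growth inhibition is given as GI50. TGI denotes the concentration required for complete inhibition of growth.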

Among the test systems are HCT-15 colon; HL-60(TB) leukemia; HOP-62 NSCLC; IGROV1 ovarian; MCF7 breast; NCI-H522 lung; OVCAR-3 ovarian; SF-295 CNS; SK-MEL-5 melanoma; SN12C renal.
Holding throughout (assay): NCI tumour cell line growth inhibition, 48 h

In the case of `O=C1/C(=C/c2[nH]ncc2-c2ccc(Cl)cc2)C(=O)N(c2ccccc2)C1c1ccccc1` (configuration not stated), the TGI is 36.9 µM with HCT-15 colon; 37 µM in the assay with HL-60(TB) leukemia; 63.2 µM in the assay with HOP-62 NSCLC; 45.1 µM in the assay with IGROV1 ovarian; > 100 µM in the assay with MCF7 breast; 27.2 µM with NCI-H522 lung. For the same compound, the TGI with OVCAR-3 ovarian is 26.9 µM; with SF-295 CNS it was 50.7 µM; in the assay with SK-MEL-5 melanoma, 27.5 µM; in the assay on SN12C renal it was 85.7 µM.

For the compound `OCCCSCCO`, the TGI with HCT-15 colon, in the assay on HL-60(TB) leukemia, with HOP-62 NSCLC, with IGROV1 ovarian, in the assay with MCF7 breast and in the assay on NCI-H522 lung was > 100 µM in each case. The TGI in the assay with OVCAR-3 ovarian, in the assay with SF-295 CNS, with SK-MEL-5 melanoma and in the assay on SN12C renal was > 100 µM each time.

For the compound `O=C(Nc1ccc(-n2ccc3c(NC(=O)c4ccccc4)nccc32)cc1)Nc1cccc(C(F)(F)F)c1`, the GI50 in the assay with HCT-15 colon is 1.03 µM; with HL-60(TB) leukemia, 3.92 µM; in the assay with HOP-62 NSCLC, 5.65 µM; in the assay on IGROV1 ovarian, 10 µM; in the assay on MCF7 breast, 6.61 µM; in the assay on NCI-H522 lung, 1.69 µM. For the same compound, the GI50 is 2.93 µM with OVCAR-3 ovarian, 3.75 µM in the assay with SF-295 CNS, 7.2 µM in the assay with SK-MEL-5 melanoma and 13.4 µM in the assay on SN12C renal. In addition, the TGI stood at 6.55 µM in the assay on HCT-15 colon; 14.2 µM in the assay on HL-60(TB) leukemia; 19.1 µM with HOP-62 NSCLC; 30.9 µM in the assay with IGROV1 ovarian; 24.8 µM in the assay with MCF7 breast; 15.3 µM in the assay on NCI-H522 lung. Also, the TGI came to 7.15 µM in the assay with OVCAR-3 ovarian, 18.8 µM in the assay on SF-295 CNS, 20.7 µM in the assay with SK-MEL-5 melanoma and 27 µM in the assay with SN12C renal.

With `COC(=O)C1CC23C4=C(CCC41)CCC1CN4CC(C)C(CC(OC(C)=O)C12COC(C)=O)C43O` (configuration not stated), the TGI with HCT-15 colon, with HL-60(TB) leukemia, with HOP-62 NSCLC, in the assay with IGROV1 ovarian, in the assay with MCF7 breast and with NCI-H522 lung was > 100 µM throughout. In addition, the TGI in the assay on OVCAR-3 ovarian, with SF-295 CNS, in the assay on SK-MEL-5 melanoma and in the assay on SN12C renal was > 100 µM throughout.

In the case of `CCOC(=O)c1c(-c2cccc(Cl)c2)c(C(=O)OC)c(C)c2sc(C=O)nc12`, the TGI worked out at 36.9 µM in the assay on HCT-15 colon; 44.9 µM with HL-60(TB) leukemia; 28.8 µM in the assay on HOP-62 NSCLC; 32.9 µM in the assay with IGROV1 ovarian; 35.7 µM in the assay on MCF7 breast; 32.5 µM in the assay on NCI-H522 lung. For the same compound, the TGI came out at 31.3 µM in the assay on OVCAR-3 ovarian, 32.5 µM in the assay on SF-295 CNS, 30.4 µM with SK-MEL-5 melanoma and 30.8 µM with SN12C renal.

In the case of `Cc1n[n+]([O-])c(C)cc1[N+](=O)[O-]`, the TGI is 29.3 µM with HCT-15 colon; 42.7 µM with HOP-62 NSCLC; 49 µM with IGROV1 ovarian; 45.6 µM in the assay with MCF7 breast; 25.6 µM with NCI-H522 lung; 27.6 µM with OVCAR-3 ovarian. The results for the TGI in the assay with SK-MEL-5 melanoma and in the assay with SN12C renal were 29.8 µM and 28.1 µM, respectively.

With `Cc1oc(N)c(S(=O)(=O)c2cc3ccccc3n(O)c2=N)c1C`, the TGI in the assay on HCT-15 colon, in the assay on HOP-62 NSCLC, in the assay with IGROV1 ovarian, in the assay on MCF7 breast, in the assay with NCI-H522 lung and in the assay with OVCAR-3 ovarian was > 100 µM each time. Besides, the TGI with SF-295 CNS, in the assay on SK-MEL-5 melanoma and in the assay with SN12C renal was > 100 µM throughout.

As for `CC1(C(=O)O)C[C@](C)(C(=O)OCc2ccccc2)C[C@](C)(C(=O)OCc2ccccc2)C1` (some centres not stated), the TGI in the assay on HCT-15 colon is 85.9 µM; with HL-60(TB) leukemia it was 53.9 µM; in the assay on HOP-62 NSCLC it was > 100 µM; in the assay on IGROV1 ovarian, 52.7 µM; in the assay on MCF7 breast, > 100 µM; in the assay on NCI-H522 lung it was 60 µM. For the same compound, the TGI in the assay on OVCAR-3 ovarian was 73.7 µM; with SF-295 CNS, 61.9 µM; in the assay with SK-MEL-5 melanoma it was > 100 µM; with SN12C renal it was > 100 µM.

In the case of `COc1cc(C2c3cc4c(cc3[C@@H](Nc3ccc(Oc5ccccc5)cc3)C3COC(=O)[C@H]23)OCO4)cc(OC)c1O` (some centres not stated), the TGI with HCT-15 colon was 19.7 µM; in the assay with HL-60(TB) leukemia, 2.23 µM; with HOP-62 NSCLC, 4.15 µM; with IGROV1 ovarian, > 100 µM; in the assay on MCF7 breast, > 37.1 µM; with NCI-H522 lung, > 78.9 µM. The TGI in the assay with OVCAR-3 ovarian is > 100 µM; in the assay on SF-295 CNS, > 100 µM; in the assay on SK-MEL-5 melanoma, 5.99 µM; in the assay with SN12C renal it was > 25.5 µM.

`CC1=CC(O)C(C(O)(C(F)(F)F)C(F)(F)F)C(C)(C)C1` (configuration not stated): the TGI with HCT-15 colon is > 10 µM; in the assay with HL-60(TB) leukemia, > 10 µM; in the assay with HOP-62 NSCLC, > 10 µM; with IGROV1 ovarian, 0.986 µM; with MCF7 breast it was > 10 µM; in the assay with NCI-H522 lung, > 10 µM. Moreover, the TGI in the assay with OVCAR-3 ovarian is > 10 µM; in the assay on SF-295 CNS, > 10 µM; in the assay on SK-MEL-5 melanoma it was 0.163 µM; in the assay with SN12C renal, > 10 µM.

For `Cc1cc2ccc(OC(=O)c3ccc(N=C(N)N)cc3)cc2oc1=O`, the TGI with HCT-15 colon is > 100 µM; in the assay on HL-60(TB) leukemia, 45.8 µM; in the assay with HOP-62 NSCLC it was 48.5 µM; in the assay on IGROV1 ovarian, > 100 µM; in the assay with MCF7 breast, 54.9 µM; with NCI-H522 lung it was 45.2 µM. Moreover, the TGI with OVCAR-3 ovarian is 45.9 µM; in the assay on SF-295 CNS, > 100 µM; with SK-MEL-5 melanoma, > 100 µM; in the assay on SN12C renal, 64 µM.

For `COc1ccc(-c2nn(-c3ccc(NC(=O)c4cc(Cl)cc(Cl)c4)cc3)cc2-c2ccncc2)cc1Cl`, the GI50 with HCT-15 colon is 1.77 µM; in the assay on HL-60(TB) leukemia it was 3.41 µM; in the assay with HOP-62 NSCLC it was 8.12 µM; in the assay with IGROV1 ovarian, > 100 µM; in the assay with MCF7 breast, > 100 µM; in the assay with NCI-H522 lung, 5.11 µM. In addition, the GI50 with OVCAR-3 ovarian is > 100 µM; with SF-295 CNS it was 0.695 µM; in the assay with SK-MEL-5 melanoma, 8.09 µM; in the assay on SN12C renal it was > 100 µM. The TGI in the assay on HCT-15 colon, with HL-60(TB) leukemia, with HOP-62 NSCLC, in the assay with IGROV1 ovarian, in the assay with MCF7 breast and in the assay with NCI-H522 lung was > 100 µM each time. In addition, the TGI in the assay with OVCAR-3 ovarian is > 100 µM; with SF-295 CNS it was 5.49 µM; in the assay with SK-MEL-5 melanoma it was > 100 µM; in the assay with SN12C renal it was > 100 µM.
